In patent publication US4888414A, “Insulin-binding peptides and uses thereof” (Board of Regents, University of Texas System, priority 1987, dated 1989):
Where no end group is shown, it is not given here.

Tests used:
[1] = Binding of iodinated polypeptide hormones to immobilized IBP; conditions: 2 nM iodinated hormone; room temperature 3 h
Procedure: The specificity of the binding of IBP to insulin was determined by incubating iodinated calcitonin, parathyroid hormone or atrial naturiuretic peptide with immobilized IBP. The binding of insulin to IBP appears to be a specific process. The specific binding of the low molecular weight polypeptide hormones calcitonin, parathyroid hormone and atrial naturiuretic peptide is less than 1% of the level of the specific binding of insulin (Ins) to IBP. The insulin-binding peptide was immobilized in the bottom of 96-well microtitre plates. To the wells were then added 2 nM iodinated polypeptide hormones in the absence or presence of at least a 1000-fold excess of unlabeled hormone. Following incubation at room temperature for 3 h, the wells were washed, excised from the plate and ^125 I measured as described above. The specific binding of hormone to the wells is indicated, along with the binding as a percentage of the binding of insulin to the wells. The polypeptide hormones utilized are indicated on the abcissa: Cal, calcitonin; PTH, parathyroid hormone; ANP, atrial naturiuretic peptide; Ins, insulin.

insulin [2] = target: T1, insulin (Homo sapiens, UniProt P01308); experiment: Binding of 125I-insulin to various immobilized peptides; conditions: peptide immobilized from 5 ug/ml; 2 nM 125I-insulin
T1 sequence (P01308 25-54 limits assumed, species assumed): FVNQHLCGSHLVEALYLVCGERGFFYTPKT
T1 sequence (P01308 90-110 partner limits assumed, species assumed): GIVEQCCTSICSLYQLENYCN
Procedure: The binding specificity of iodinated insulin for immobilized peptides was determined. Peptides of various sequences and sizes were immobilized in microtitre wells, as described in Example 1. The peptides utilized were IBP (CVEEAS) and a series of control peptide having the following designations and amino acid sequences: S28, TTHYQKG; S79, AQGHRPQDEG; S81, YGSLPQKAQGHRPQDEG; S82, THYGSLPQKAQGHRPQDEG; and EAE, FSWGAEGQR.
Peptides were dissolved in buffer at a concentration of 5 ug/ml, and immobilized in the wells of the microtitre plate. The immobilized peptides were then incubated with 2 nM ^125 I-insulin in the absence or presence of 3 uM unlabeled insulin, as described above. The specific binding of insulin to immobilized peptide is indicated, alone with the binding as a percentage of the binding of insulin to immobilized IBP. The peptides utilized are indicated on the abcissa. The respective relative binding of insulin (shown in FIG. 5) was IBP-100%, S28-0.3%, S79-1.5%, S81-0.6%, S82-0.2% and EAE-0.3%.

insulin [3] = target: T1, insulin; experiment: Binding of 125I-insulin to immobilized IBP in microtitre wells
Procedure: Insulin Binding Peptide, synthesized by OCS Laboratories, Inc., Denton, Tex., was immobilized in the wells of flexible, U-bottom 96-well polyvinyl chloride microtitre plates (Falcon, Becton Dickinson Labware). To each well was added 100 ul of the peptide (5 ug/ml in 0.1 M sodium carbonate, pH 9.6). The peptide was allowed to adsorb to the well overnight at 4° C. Unreacted sites in the wells were blocked with 150 ul of 1% ovalbumin (Sigma Chemical Co.) in 0.1M sodium carbonate, pH 9.6, for 1 h at room temperature. The wells were washed two times with phosphate-buffered saline (PBS) containing 0.1% BSA (Fraction V, Sigma Chemical Co.), and then incubated with ^125 I-insulin in PBS, 0.1% BSA, for 3 h at room temperature. The wells were then washed 3 times with PBS-0.1% BSA, and were then excised from the plate and counted in a gamma counter. Total binding of insulin to the IBP was determined with iodinated insulin alone. Nonspecific binding was determined in the presence of radiolabeled insulin plus 3 uM unlabeled insulin. Specific binding was calculated as the difference between total and nonspecific binding. All values are reported as specific binding, unless otherwise indicated. All determinations (both total and nonspecific) were performed in triplicate. Insulin was iodinated by the method of Chloramine T, as previously described (Gavin et al., Proc. Nat. Acad. Sci., Vol. 71, p. 84-88 (1974)).
The peptide was immobilized in the bottom of 96-well microtitre plates, and at zero time, 2 nM ^125 I-insulin, in the absence or presence of 3 uM unlabeled insulin, was added to each of the wells. At the indicated times, the wells were washed with cold PBS, the washed wells were cut from the dish and counted for radioactivity. The indicated data points are average values of specifically bound insulin, and the error bars indicate the range of the data. At 25° C., the binding attained equilibrium within 1.5 h, with a half-time of approximately 20 min. At 4° C., the binding process is slightly slower, requiring approximately 2 h to attain an equilibrium level of binding.
The peptide was immobilized in the bottom of 96-well microtitre plates, and ^125 I-insulin, in the absence or presence of 3 uM unlabeled insulin, was added to the wells. Following incubation at 25° C. for 3 h, the wells were washed, cut from the dish, and counted, as described above. The indicated data points of FIG. 2 are average values of specifically bound insulin, the error bars indicate the range of the data.

Substance	specific binding to IBP as percentage of the specific binding of insulin [1]	relative binding of insulin to immobilized peptide, as percentage of binding to immobilized IBP (insulin [2])	other results
calcitonin	less than 1%		
THYGSLPQKAQGHRPQDEG [S82, THYGSLPQKAQGHRPQDEG]		0.2%	
TTHYQKG [S28, TTHYQKG]		0.3%	
atrial naturiuretic peptide	less than 1%		
parathyroid hormone	less than 1%		
CVEEAS [IBP, NH2 -Cys-Val-Glu-Glu-Ala-Ser-COOH]			time to attain an equilibrium level of binding (insulin [3]; 4° C., 2 nM 125I-insulin): approximately 2 h; half-time of binding (insulin [3]; 25° C., 2 nM 125I-insulin): approximately 20 min; time for binding to attain equilibrium (insulin [3]; 25° C., 2 nM 125I-insulin): ≤ 1.5 h; Kd (insulin [3]; IBP immobilized on plastic surface, 125I-insulin, 25° C. for 3 h, read-out: Kd of insulin binding to immobilized IBP (Scatchard)): 3 nM
YGSLPQKAQGHRPQDEG [S81, YGSLPQKAQGHRPQDEG]		0.6%	
AQGHRPQDEG [S79, AQGHRPQDEG]		1.5%	
FSWGAEGQR [EAE, FSWGAEGQR]		0.3%	
